Test results: US10774046B2, “Inhibitors for the treatment of cancer and related methods” (UNIVERSITY OF LOUISVILLE RESEARCH FOUNDATION, INC., priority 2017, dated 2020)

Experiments:
[1] = oral and intravenous pharmacokinetic properties; type: in vivo; details: CD-1 mice (N=3)
LLC xenografts = test: intratumoral F2,6BP; type: in vivo, C57BL/6 mice; details: 120 mg/kg by gavage daily, 10 days
Experimental: Cells or tissues were prepared as previously described and F2,6BP content measured using a coupled enzyme reaction following a modification of the method of Van Schaftingen et al (VAN SCHAFTINGEN E et al. “A kinetic study of pyrophosphate:fructose-6-phosphate phosphotransferase from potato tubers. Application to a microassay of fructose 2,6-bisphosphate” Eur J Biochem (1982) Vol. 129, No. 1, pp. 191-195) and normalized to total cellular protein measured by the bicinchoninic acid assay (BCA, Thermo Scientific). For example, H460 cells were exposed to the indicated concentrations of MPN-2. In order to measure F2,6BP, cells were harvested, washed with PBS, lysed in NaOH/Tris acetate by heating at 80° C. and lysates neutralized to pH 7.2. F2,6BP content was measured using a coupled enzyme reaction following a modified method of Van Schaftingen et al (VAN SCHAFTINGEN E et al. “A kinetic study of pyrophosphate:fructose-6-phosphate phosphotransferase from potato tubers. Application to a microassay of fructose 2,6-bisphosphate” Eur J Biochem (1982) Vol. 129, No. 1, pp. 191-195). The F2,6BP concentration was normalized to total cellular protein measured by the bicinchoninic acid assay (BCA, Thermo Scientific). All data are expressed as the mean±SD of three experiments. Statistical significance was assessed by the two-sample t test (independent variable). […]

A549 = test: proliferation, viable cell count; type: cell-based, human; details: A549, over 48 hours
Description: (§1) H460, H1299, H441, H522 and A549 non-small cell lung cancer (NSCLC), MDA-MB-231 (breast), LNCaP (prostatic) and HCT116 (colon) adenocarcinoma and Lewis lung carcinoma (LLC) cell lines were obtained from ATCC and used within 6 months of acquisition. PFKFB4^−/− ear pinna fibroblasts isolated from TamCre/loxP/PFKFB4^−/− mice were immortalized as described previously (Chesney J et al. Fructose-2,6-bisphosphate synthesis by 6-phosphofructo-2-kinase/fructose-2,6-bisphosphatase 4 (PFKFB4) is required for the glycolytic response to hypoxia and tumor growth. Oncotarget 2014 Aug. 30; 5(16):6670-86). Normal bronchial epithelial cells (NHBE) were obtained from Lonza and NHBE cells expressing telomerase, SV40 large T antigen and activated Ras (hT/LT/Ras) were a gift from Dr. B. J. Rollins, Dana Farber Cancer Institute. All cell lines were tested and found negative for mycoplasma (PCR Mycoplasma Detection Kit, ABM). Cell lines were grown in DMEM (A549, LNCaP, MDA-MB-231, LLC and PFKFB4^−/−), RPMI 1640 (H460, H1299, H441, H522) and McCoy's 5A media (HCT116) (all from Invitrogen) containing 10% fetal calf serum (Hyclone). NHBE and hT/LT/Ras cells were grown in BEGM containing SingleQuots (Lonza). All lines were cultured at 37° C. in 5% CO2. In certain experiments, 4-hydroxytamoxifen (4HT, Sigma-Aldrich) was added to PFKFB4^−/− fibroblasts at indicated concentrations.
(§2) Cells were incubated in 20% trypan blue (Sigma) for 5 minutes. Cells excluding trypan blue were counted using a standard hemocytometer (Hausser Scientific) to determine total numbers of viable cells. Data are expressed as mean±SD of three experiments.

PFKFB3 = PFKFB3 (Homo sapiens, UniProt Q16875); test: PFKFB3 kinase activity; type: biochemical; details: 10 μM
LLC cells = test: cell cycle analysis by flow cytometry; type: cell-based, mouse; details: LLC cells in vitro, 10 μM 5MPN
Experimental: To measure apoptosis, cells were stained with annexin V and propidium iodide and examined as previously described. For example, H460 cells were exposed to increasing concentrations of the PFKFB4 inhibitor (MPN-2), the PFKFB3 inhibitor PFK15 (Tocris) or both and viable cells were counted at 24, 48 and 72 hours. DMSO used as vehicle. For cell cycle experiments, cells were detached, washed with cold PBS and fixed in 70% ethanol (4° C., 30 minutes). The cells then were pelleted by centrifugation, resuspended in PBS containing PI and RNase A, incubated at 37° C. in the dark for 30 minutes and analyzed by flow cytometry (BD FACSCalibur). Data were analyzed using FlowJo software (TREE STAR Inc.). Results were calculated as the mean±SD of three experiments. The effects (Fa values) of the series of concentrations of MPN-2 and PFK-15 were examined individually and in combination at a constant ratio of 1:1.

[2] = test system: normal human bronchial epithelial (NHBE) cells; test: cell growth of normal cells, live cell count; type: cell-based; details: live cells at 48 hours
Description: as §1, with “NHBE and hT/LT/Ras cells were grown in BEGM containing SingleQuots (Lonza). All lines were cultured at 37° C. in 5% CO2. In certain experiments, 4-hydroxytamoxifen (4HT, Sigma-Aldrich) was added to PFKFB4^−/− fibroblasts at indicated concentrations.” left out
as §2

cancer cells = test: F26BP measurement in cells; type: cell-based; details: increasing concentrations
Experimental: Method: In order to measure F26BP, cells were exposed to increasing concentrations of Formula (VIII) and were harvested, washed with PBS, lysed in NaOH/Tris acetate by heating at 80° C. and lysates neutralized to pH 7.2. F26BP content was measured using a coupled enzyme reaction following a modified method of Van Schaftingen (VAN SCHAFTINGEN et al, “A kinetic study of pyrophosphate:fructose-6-phosphate phosphotransferase from potato tubers. Application to a microassay of fructose 2,6-bisphosphate” Eur J Biochem. (1982) Vol. 129, No. 1, pp. 191-195), which is herein incorporated by reference in its entirety. The F26BP concentration was normalized to total cellular protein measured by the bicinchoninic acid assay (BCA, Thermo Scientific).

Chain of PFKFB3 (Q16875 whole entry, species assumed): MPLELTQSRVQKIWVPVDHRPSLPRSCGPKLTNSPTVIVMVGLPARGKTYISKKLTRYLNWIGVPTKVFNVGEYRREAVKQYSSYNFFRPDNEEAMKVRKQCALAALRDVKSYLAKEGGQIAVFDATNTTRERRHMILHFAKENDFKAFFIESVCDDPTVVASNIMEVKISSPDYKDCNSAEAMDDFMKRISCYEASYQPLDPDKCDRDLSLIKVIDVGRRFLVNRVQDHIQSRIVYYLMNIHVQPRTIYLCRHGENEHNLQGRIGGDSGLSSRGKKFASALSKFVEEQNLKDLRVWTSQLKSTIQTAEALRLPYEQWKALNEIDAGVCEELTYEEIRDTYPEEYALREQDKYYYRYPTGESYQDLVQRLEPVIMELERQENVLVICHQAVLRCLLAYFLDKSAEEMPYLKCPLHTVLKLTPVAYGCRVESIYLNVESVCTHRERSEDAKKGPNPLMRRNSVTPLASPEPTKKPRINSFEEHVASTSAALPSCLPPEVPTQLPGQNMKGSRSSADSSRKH

Compound: 5-[(8-methoxy-2-methylquinolin-1-ium-4-yl)amino]pentyl nitrate [MPN-2]
- intravenous bioavailability [1]: exhibits intravenous bioavailability
- oral bioavailability [1]: has oral bioavailability

Compound: COc1cccc2c(NCCCCCO[N+](=O)[O-])ccnc12 [5MPN, 5-[(8-methoxyquinolin-4-yl)amino]pentyl nitrate]
- intratumoral F2,6BP (LLC xenografts): reduction
- growth (A549): dose-dependent reduction in growth
- inhibition of kinase activity (PFKFB3): did not inhibit
- cell cycle distribution (LLC cells): G1 arrest
- cell growth of normal cells [2]: virtually unaffected

Compound: COc1cccc2c(NCCCCCNC(=O)C(F)(F)F)ccnc12 [Formula (VIII), 2,2,2-trifluoro-N-(5-((8-methoxyquinolin-4-yl)amino)pentyl)acetamide]
- F26BP (normalized to cellular protein) (cancer cells): dose-dependent decrease
